Reference: patent US11566007B2, “Ras inhibitors” (Revolution Medicines, Inc., priority 2019, dated 2023)

Tests used:
[1] = system: NCI-H358 cells (K-Ras G12C); assay: Potency assay: pERK in NCI-H358 cells; assay type: cell-based, human; details: Homo sapiens, NCI-H358; H358 KRAS G12C; read-out: pERK EC50
Method in brief: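 Inhibition of cellular pERK after a 4 h treatment, detected by AlphaLISA or In-Cell Western. IC50 from a four-parameter concentration-response fit.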

[2] = system: NCI-H358 (K-Ras G12C); assay: CellTiter-Glo cell viability assay, NCI-H358; assay type: cell-based, human; details: Homo sapiens, NCI-H358, 120 h, NCI-H358, 5-day treatment; class symbols; read-out: Additional H358 Cell Viability assay data (K-Ras G12C, IC50)
Method in brief: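 Compounds were dispensed directly onto K-Ras mutant cells and incubated until day 5, then plates were equilibrated to room temperature for about 30 minutes before CellTiter-Glo luminescence. Signals were normalized as (sample/average DMSO)*100 and fitted by four-parameter logistic fit.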

[3] = target: KRAS Q61H (Homo sapiens (Human), UniProt P01116+P62937, Q61H); assay: Ras-Raf (BRAF RBD) disruption / FRET / MOA assay, KRAS Q61H; assay type: biochemical; details: Ras-Raf disruption/FRET/MOA assay; class symbols; read-out: KRAS Q61H FRET data IC50
KRAS Q61H, sequence (P01116-2 other isoform, or with tags, fused parts or gaps Q61H): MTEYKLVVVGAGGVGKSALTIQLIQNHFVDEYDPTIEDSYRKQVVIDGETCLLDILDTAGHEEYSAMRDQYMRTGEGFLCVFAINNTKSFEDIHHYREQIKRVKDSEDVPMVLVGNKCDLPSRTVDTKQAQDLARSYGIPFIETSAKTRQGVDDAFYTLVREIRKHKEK
KRAS Q61H, sequence (P62937 whole entry): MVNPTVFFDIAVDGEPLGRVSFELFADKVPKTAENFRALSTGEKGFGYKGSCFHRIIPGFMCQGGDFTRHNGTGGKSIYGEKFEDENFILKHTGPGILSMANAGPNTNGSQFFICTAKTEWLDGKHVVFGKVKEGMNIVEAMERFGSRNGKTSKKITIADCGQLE
Method in brief: (§1)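 TR-FRET disruption of nucleotide-loaded Ras binding to BRAF RBD via compound-driven ternary complex with cyclophilin A. Compound as 10-point 3-fold series from 30 μM final, 3 h at 25° C, then anti-His Eu-W1024 (10 nM) and anti-GST allophycocyanin (50 nM) for 1.5 h. IC50 from decreased FRET ratio versus DMSO.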

[4] = target: NRAS Q61K (Homo sapiens (Human), UniProt P01111+P62937, Q61K); assay: Ras-Raf (BRAF RBD) disruption / FRET / MOA assay, NRAS Q61K; assay type: biochemical; details: NRAS Q61K; Ras-Raf disruption/FRET/MOA assay; read-out: IC50* NRAS Q61K FRET data
NRAS Q61K, sequence (P01111 whole entry Q61K): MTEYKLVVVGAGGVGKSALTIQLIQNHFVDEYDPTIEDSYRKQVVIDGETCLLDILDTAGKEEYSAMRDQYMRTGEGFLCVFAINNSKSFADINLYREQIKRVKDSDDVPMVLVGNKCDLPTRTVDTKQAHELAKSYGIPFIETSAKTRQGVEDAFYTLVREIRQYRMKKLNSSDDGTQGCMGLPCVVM
NRAS Q61K, sequence (P62937 whole entry): as the sequence (P62937 whole entry) above
Method in brief: as §1

| SMILES | EC50 [1] | IC50 [2] | IC50 [3] | IC50 [4] |
| --- | --- | --- | --- | --- |
| C=CC(=O)N(C)[C@H]1CN(C(=O)N(C)[C@H](C(=O)N[C@H]2Cc3nc(cs3)-c3ccc4c(c3)c(c(-c3cccnc3[C@H](C)OC)n4CC)CC(C)(C)COC(=O)[C@@H]3CCCN(N3)C2=O)C(C)C)C[C@H]1F (atropisomer, axis not shown) [Example A631] | < 5 µM | < 10 nM | 10 to 100 nM | 10 to 100 nM |
| C=CC(=O)N1CC[C@H](C(=O)N(C)[C@@H](CC(F)(F)F)C(=O)N[C@H]2Cc3cccc(c3)-c3ccc4c(c3)c(c(-c3cccnc3[C@H](C)OC)n4CC)CC(C)(C)COC(=O)[C@@H]3CCCN(N3)C2=O)C1 (atropisomer, axis not shown) [Example A639] | < 5 µM | 100 to 1000 nM | 1000 to 10000 nM | 1000 to 10000 nM |
| CCn1c(-c2cccnc2[C@H](C)OC)c2c3cc(ccc31)N1CCO[C@@H](C[C@H](NC(=O)[C@@H](COC3CCN(C(=O)C#CC(C)(C)N(C)C)CC3)C(C)C)C(=O)N3CCC[C@H](N3)C(=O)OCC(C)(C)C2)C1 (atropisomer, axis not shown) [Example A643, (2R)-2-(((1-(4-(dimethylamino)-4-methylpent-2-ynoyl)piperidin-4-yl)oxy)methyl)-N-((2^2S,6^3S,4S)-1^1-ethyl-1^2-(2-((S)-1-methoxyethyl)pyridin-3-yl)-10,10-dimethyl-5,7-dioxo-6^1,6^2,6^3,6^4,6^5,6^6-hexahydro-1^1H-8-oxa-2(4,2)-morpholina-1(5,3)-indola-6(1,3)-pyridazinacycloundecaphane-4-yl)-3-methylbutanamide] | < 5 µM | < 10 nM | > 10000 nM | > 10000 nM |
| CCn1c(-c2cccnc2[C@H](C)OC)c2c3cc(ccc31)-c1cccc(c1)C[C@H](NC(=O)[C@@H](COC1CN(C(=O)C#C[C@H]3COCCN3C)C1)C(C)C)C(=O)N1CCC[C@H](N1)C(=O)OCC(C)(C)C2 (atropisomer, axis not shown) [Example A644] | < 5 µM | < 10 nM | > 10000 nM | > 10000 nM |
| CCn1c(-c2cccnc2[C@H](C)OC)c2c3cc(ccc31)-c1cccc(c1)C[C@H](NC(=O)[C@@H](COC1CN(C(=O)C#C[C@@H]3OCCCN3C)C1)C(C)C)C(=O)N1CCC[C@H](N1)C(=O)OCC(C)(C)C2 (atropisomer, axis not shown) [Example A648] | < 5 µM | 10 to 100 nM | > 10000 nM | > 10000 nM |
| CCn1c(-c2cccnc2[C@H](C)OC)c2c3cc(ccc31)-c1cnc(o1)C[C@H](NC(=O)[C@@H](COC1CN(C(=O)C#CC(C)(C)N(C)C)C1)C(C)C)C(=O)N1CCC[C@H](N1)C(=O)OCC(C)(C)C2 (atropisomer, axis not shown) [Example A649] | < 5 µM | 10 to 100 nM | > 10000 nM | > 10000 nM |
| CCn1c(-c2cccnc2[C@H](C)OC)c2c3cc(ccc31)-c1csc(n1)C[C@H](NC(=O)[C@H](C(C)C)N(C)C(=O)N1CCC3(CC1)CN(C(=O)/C=C/CN(C)C)C3)C(=O)N1CCC[C@H](N1)C(=O)OCC(C)(C)C2 (atropisomer, axis not shown) [Example A650] | < 5 µM | 10 to 100 nM | 10 to 100 nM | 10 to 100 nM |
| CCn1c(-c2cccnc2[C@H](C)OC)c2c3cc(ccc31)-c1csc(n1)C[C@H](NC(=O)[C@H](C(C)C)N(C)C(=O)N1CCC13CN(C(=O)C#CC(C)(C)N(C)C)C3)C(=O)N1CCC[C@H](N1)C(=O)OCC(C)(C)C2 (atropisomer, axis not shown) [Example A656] | < 5 µM | 10 to 100 nM | 10 to 100 nM | 100 to 1000 nM |
| CO[C@@H](C)c1ncccc1-c1c2c3cc(ccc3n1CC(F)(F)F)-c1csc(n1)C[C@H](NC(=O)[C@H](C(C)C)N(C)C(=O)N1CCN(C(=O)/C=C/CN(C)C)C3(CC3)C1)C(=O)N1CCC[C@H](N1)C(=O)OCC(C)(C)C2 (atropisomer, axis not shown) [Example A664] | < 5 µM | 10 to 100 nM | 10 to 100 nM | 10 to 100 nM |
| C=CC(=O)N1CC(N2CCN(C(=O)N(C)[C@H](C(=O)N[C@H]3Cc4nc(cs4)-c4ccc5c(c4)c(c(-c4cccnc4[C@H](C)OC)n5CC)CC(C)(C)COC(=O)[C@@H]4CCCN(N4)C3=O)C(C)C)CC2)C1 (atropisomer, axis not shown) [Example A668] | < 5 µM | 10 to 100 nM | 10 to 100 nM | 10 to 100 nM |
| CO[C@@H](C)c1ncccc1-c1c2c3cc(ccc3n1CC(F)(F)F)-c1nc(co1)C[C@H](NC(=O)[C@@H](COC1CN(C(=O)C#CC(C)(C)N(C)C)C1)C(C)C)C(=O)N1CCC[C@H](N1)C(=O)OCC(C)(C)C2 (atropisomer, axis not shown) [Example A674] | < 5 µM | < 10 nM | 1000 to 10000 nM | > 10000 nM |
| C=CC(=O)N1CC[C@@]2(COCCN2C(=O)N(C)[C@H](C(=O)N[C@H]2Cc3nc(cs3)-c3ccc4c(c3)c(c(-c3cccnc3[C@H](C)OC)n4CC)CC(C)(C)COC(=O)[C@@H]3CCCN(N3)C2=O)C(C)C)C1 (atropisomer, axis not shown) [Example A677] | < 5 µM | < 10 nM | 100 to 1000 nM | 100 to 1000 nM |
| C=CC(=O)N1CCC2(CC1)CCN2C(=O)N(C)[C@H](C(=O)N[C@H]1Cc2nc(cs2)-c2ccc3c(c2)c(c(-c2cccnc2[C@H](C)OC)n3CC)CC(C)(C)COC(=O)[C@@H]2CCCN(N2)C1=O)C(C)C (atropisomer, axis not shown) [Example A678] | < 5 µM | 10 to 100 nM | 10 to 100 nM | 10 to 100 nM |
| CCn1c(-c2cccnc2[C@H](C)OC)c2c3cc(ccc31)-c1csc(n1)C[C@H](NC(=O)[C@H](C(C)C)N(C)C(=O)N1CCC3(CC1)CN(C(=O)/C=C/C(F)F)C3)C(=O)N1CCC[C@H](N1)C(=O)OCC(C)(C)C2 (atropisomer, axis not shown) [Example A683] | < 5 µM | 10 to 100 nM | 10 to 100 nM | 10 to 100 nM |
| C=CC(=O)N1CC[C@H](C(=O)N(C)[C@H](C(=O)N[C@H]2Cc3cccc(c3)-c3ccc4c(c3)c(c(-c3cccnc3[C@H](C)OC)n4CC)CC(C)(C)COC(=O)[C@@H]3CCCN(N3)C2=O)C(C)(C)F)C1 (atropisomer, axis not shown) [Example A693] | < 5 µM | 100 to 1000 nM | 1000 to 10000 nM | 1000 to 10000 nM |
| C=CC(=O)N1CCC2(CCN(C(=O)N(C)[C@H](C(=O)N[C@H]3Cc4nc(cs4)-c4ccc5c(c4)c(c(-c4cccnc4[C@H](C)OC)n5CC)CC(C)(C)COC(=O)[C@@H]4CCCN(N4)C3=O)C(C)C)CC2)C1 (atropisomer, axis not shown) [Example A698] | < 5 µM | 10 to 100 nM | 10 to 100 nM | 10 to 100 nM |
| CCn1c(-c2cccnc2[C@H](C)OC)c2c3cc(ccc31)-c1csc(n1)C[C@H](NC(=O)[C@H](C(C)C)N(C)C(=O)N1CCN(C(=O)/C=C/CN(C)C)C3(CC3)C1)C(=O)N1CCC[C@H](N1)C(=O)OCC(C)(C)C2 (atropisomer, axis not shown) [Example A701] | < 5 µM | 10 to 100 nM | 10 to 100 nM | 10 to 100 nM |
| C=CC(=O)N1CCC2(CC1)CN(C(=O)N(C)[C@H](C(=O)N[C@H]1Cc3nc(cs3)-c3ccc4c(c3)c(c(-c3cccnc3[C@H](C)OC)n4CC)CC(C)(C)COC(=O)[C@@H]3CCCN(N3)C1=O)C(C)C)C2 (atropisomer, axis not shown) [Example A702] | < 5 µM | 10 to 100 nM | 10 to 100 nM | 10 to 100 nM |
| C=CC(=O)N(C)[C@H]1C[C@@H](N(C)C(=O)N(C)[C@H](C(=O)N[C@H]2Cc3nc(cs3)-c3ccc4c(c3)c(c(-c3cccnc3[C@H](C)OC)n4CC)CC(C)(C)COC(=O)[C@@H]3CCCN(N3)C2=O)C(C)C)C1 (atropisomer, axis not shown) [Example A704] | < 5 µM | < 10 nM | 10 to 100 nM | 10 to 100 nM |
| C=CC(=O)N(C)[C@H]1C[C@H](N(C)C(=O)N(C)[C@H](C(=O)N[C@H]2Cc3nc(cs3)-c3ccc4c(c3)c(c(-c3cccnc3[C@H](C)OC)n4CC)CC(C)(C)COC(=O)[C@@H]3CCCN(N3)C2=O)C(C)C)C1 (atropisomer, axis not shown) [Example A712] | < 5 µM | < 10 nM | 10 to 100 nM | 10 to 100 nM |
| C=CC(=O)N1CCO[C@@H]2CN(C(=O)N(C)[C@H](C(=O)N[C@H]3Cc4nc(cs4)-c4ccc5c(c4)c(c(-c4cccnc4[C@H](C)OC)n5CC)CC(C)(C)COC(=O)[C@@H]4CCCN(N4)C3=O)C(C)C)C[C@@H]21 (atropisomer, axis not shown) [Example A714] | < 5 µM | < 10 nM | 100 to 1000 nM | 100 to 1000 nM |
